Read-outs that look alike come from different tables or passages of the source.
Experiments:
human α4β2 nAChR subtype = biological target: T1, human α4β2 nAChR subtype (Homo sapiens, UniProt P17787+P43681); test: Radioligand binding ([3H]nicotine) at human α4β2 nAChR, SH-EP1/human α4β2 clonal cell membranes
T1 construct: expressed in transfected cells; host or cells: SH-EP1 clonal cells expressing human α4β2
Method: Preparation of membranes from SH-EP1/human α4β2 clonal cells: Cell pellets from 40 150 mm culture dishes were pooled, and homogenized by Polytron (Kinematica GmbH, Switzerland) in 20 milliliters of ice-cold preparative buffer. The homogenate was centrifuged at 48,000 g for 20 minutes at 4° C. The resulting pellet was re-suspended in 20 mL of ice-cold preparative buffer and stored at −20° C.
(§1) On the day of the assay, the frozen membranes were thawed and spun at 48,000×g for 20 min. The supernatant was decanted and discarded. The pellet was resuspended in Dulbecco's phosphate buffered saline (PBS, Life Technologies) pH 7.4 and homogenized with the Polytron for 6 seconds. Protein concentrations were determined using a Pierce BCA Protein Assay Kit, with bovine serum albumin as the standard (Pierce Chemical Company, Rockford, Ill.).
(§2) Incubation was terminated by rapid filtration on a multi-manifold tissue harvester (Brandel, Gaithersburg, Md.) using GF/B filters presoaked in 0.33% polyethyleneimine (w/v) to reduce non-specific binding. Tissue was rinsed 3 times in PBS, pH 7.4. Scintillation fluid was added to filters containing the washed tissue and allowed to equilibrate. Filters were then counted to determine radioactivity bound to the membranes by liquid scintillation counting (2200CA Tri-Carb LSC, Packard Instruments, 50% efficiency or Wallac Trilux 1450 MicroBeta, 40% efficiency, Perkin Elmer).
(§3) Data were expressed as disintegrations per minute (DPMs). Within each assay, each point had 2-3 replicates. The replicates for each point were averaged and plotted against the log of the drug concentration. IC50, which is the concentration of the compound that produces 50% inhibition of binding, was determined by least squares non-linear regression. Ki values were calculated using the Cheng-Prussof equation (1973): […]

rat α4β2 nAChR subtype = biological target: T2, rat α4β2 nAChR subtype (Rattus norvegicus, UniProt P09483+P12390); test: Radioligand binding ([3H]nicotine) at rat α4β2 nAChR, rat cortex membranes
T2 construct: Preparation of membranes from rat cortex; from tissue; host or cells: rat cerebral cortex membranes
T2 sequence (P09483 31-630): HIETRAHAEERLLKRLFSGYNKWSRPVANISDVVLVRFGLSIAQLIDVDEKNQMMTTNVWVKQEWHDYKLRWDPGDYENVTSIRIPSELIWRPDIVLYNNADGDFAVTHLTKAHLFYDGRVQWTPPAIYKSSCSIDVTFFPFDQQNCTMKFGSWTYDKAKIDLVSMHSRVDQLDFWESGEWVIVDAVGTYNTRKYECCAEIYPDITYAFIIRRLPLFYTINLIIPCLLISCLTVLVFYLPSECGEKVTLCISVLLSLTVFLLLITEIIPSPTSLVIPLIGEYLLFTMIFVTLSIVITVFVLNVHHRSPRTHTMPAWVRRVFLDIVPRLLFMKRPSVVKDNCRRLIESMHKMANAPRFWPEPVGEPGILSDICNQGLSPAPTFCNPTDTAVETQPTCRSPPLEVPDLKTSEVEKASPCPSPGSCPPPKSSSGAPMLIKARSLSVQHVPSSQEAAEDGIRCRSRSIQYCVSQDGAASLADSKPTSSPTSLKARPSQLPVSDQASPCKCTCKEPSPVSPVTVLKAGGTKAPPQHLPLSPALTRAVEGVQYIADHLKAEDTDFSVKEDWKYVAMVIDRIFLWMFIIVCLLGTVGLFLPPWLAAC
T2 sequence (P12390 25-500): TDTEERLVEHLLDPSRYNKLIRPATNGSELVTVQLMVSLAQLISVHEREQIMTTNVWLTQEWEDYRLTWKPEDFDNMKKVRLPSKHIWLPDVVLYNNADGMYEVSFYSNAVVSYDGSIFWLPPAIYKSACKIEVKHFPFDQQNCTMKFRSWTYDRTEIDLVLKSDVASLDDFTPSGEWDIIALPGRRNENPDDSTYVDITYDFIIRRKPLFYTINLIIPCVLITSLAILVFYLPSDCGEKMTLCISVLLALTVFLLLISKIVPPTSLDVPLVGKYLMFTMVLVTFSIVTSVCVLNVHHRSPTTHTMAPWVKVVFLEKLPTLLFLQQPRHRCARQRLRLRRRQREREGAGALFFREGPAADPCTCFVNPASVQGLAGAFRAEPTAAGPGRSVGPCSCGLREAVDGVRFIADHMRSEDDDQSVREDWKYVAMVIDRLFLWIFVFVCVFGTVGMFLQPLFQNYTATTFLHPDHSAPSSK
Method: (§4) Preparation of membranes from rat cortex: Rats (female, Sprague-Dawley), weighing 150-250 g, were maintained on a 12 h light/dark cycle and were allowed free access to water and food supplied by PMI Nutrition International, Inc. Animals were anesthetized with 70% CO2, and then decapitated. Brains were removed and placed on an ice-cold platform. The cerebral cortex was removed and placed in 20 volumes (weight:volume) of ice-cold preparative buffer (137 mM NaCl, 10.7 mM KCl, 5.8 mM KH2PO4, 8 mM Na2HPO4, 20 mM HEPES (free acid), 5 mM iodoacetamide, 1.6 mM EDTA, pH 7.4); PMSF, dissolved in methanol to a final concentration of 100 μM, was added and the suspension was homogenized by Polytron. The homogenate was centrifuged at 18,000×g for 20 min at 4° C. and the resulting pellet was re-suspended in 20 volumes of ice-cold water. After 60 min incubation on ice, a new pellet was collected by centrifugation at 18,000×g for 20 min at 4° C. The final pellet was re-suspended in 10 volumes of buffer and stored at −20° C.
as §1, §2, §3

rat α7 nAChR subtype = biological target: T3, rat α7 nAChR subtype (Rattus norvegicus, UniProt Q05941); test: Radioligand binding ([3H]MLA) at α7 nAChR, rat hippocampus membranes
T3 construct: Preparation of membranes from rat hippocampus; from tissue; host or cells: rat hippocampus membranes
T3 sequence (Q05941 23-502): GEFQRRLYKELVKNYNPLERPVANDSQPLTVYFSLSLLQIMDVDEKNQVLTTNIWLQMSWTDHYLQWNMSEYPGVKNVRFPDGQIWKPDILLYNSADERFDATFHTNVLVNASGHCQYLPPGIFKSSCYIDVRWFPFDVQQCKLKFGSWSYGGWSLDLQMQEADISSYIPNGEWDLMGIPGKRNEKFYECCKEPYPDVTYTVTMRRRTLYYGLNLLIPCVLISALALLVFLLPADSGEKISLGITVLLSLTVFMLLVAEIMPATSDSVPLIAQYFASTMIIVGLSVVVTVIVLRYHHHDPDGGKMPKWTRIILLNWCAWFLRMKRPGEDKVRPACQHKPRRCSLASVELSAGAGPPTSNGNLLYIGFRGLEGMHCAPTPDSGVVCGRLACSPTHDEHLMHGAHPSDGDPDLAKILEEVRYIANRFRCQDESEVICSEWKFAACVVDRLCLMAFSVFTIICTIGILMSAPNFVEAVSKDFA
Method: as §4, with “from rat hippocampus: Rats (female,” for “from rat cortex: Rats (female,”, “70% CO2, then decapitated.” for “70% CO2, and then decapitated.”, “platform. The hippocampus was removed” for “platform. The cerebral cortex was removed”, “placed in 10 volumes (weight:volume)” for “placed in 20 volumes (weight:volume)”, “and the tissue suspension was” for “and the suspension was”, “re-suspended in 10 volumes of” for “re-suspended in 20 volumes of”
On the day of the assay, tissue was thawed, centrifuged at 18,000×g for 20 min, and then re-suspended in ice-cold PBS (Dulbecco's Phosphate Buffered Saline, 138 mM NaCl, 2.67 mM KCl, 1.47 mM KH2PO4, 8.1 mM Na2HPO4, 0.9 mM CaCl2, 0.5 mM MgCl2, Invitrogen/Gibco, pH 7.4) to a final concentration of approximately 2 mg protein/mL. Protein was determined by the method of Lowry et al., J. Biol. Chem. 193: 265 (1951), herein incorporated by reference, using bovine serum albumin as the standard.
Assay: The binding of [^3H]MLA was measured using a modification of the methods of Davies et al., Neuropharmacol. 38: 679 (1999), herein incorporated by reference. [^3H]MLA (Specific Activity=25-35 Ci/mmol) was obtained from Tocris. The binding of [^3H]MLA was determined using a 2 h incubation at 21° C. Incubations were conducted in 48-well micro-titre plates and contained about 200 μg of protein per well in a final incubation volume of 300 μL. The incubation buffer was PBS and the final concentration of [^3H]MLA was 5 nM. The binding reaction was terminated by filtration of the protein containing bound ligand onto glass fiber filters (GF/B, Brandel) using a Brandel Tissue Harvester at room temperature. Filters were soaked in de-ionized water containing 0.33% polyethyleneimine to reduce non-specific binding. Each filter was washed with PBS (3×1 mL) at room temperature. Non-specific binding was determined by inclusion of 50 μM non-radioactive MLA in selected wells.
The inhibition of [^3H]MLA binding by test compounds was determined by including seven different concentrations of the test compound in selected wells. Each concentration was replicated in triplicate. IC50 values were estimated as the concentration of compound that inhibited 50 percent of specific [^3H]MLA binding. Inhibition constants (Ki values), reported in nM, were calculated from the IC50 values using the method of Cheng et al., Biochem. Pharmacol. 22: 3099-3108 (1973), herein incorporated by reference.

[1] = SH-EP1/human α4β2 cell membranes, 5 nM [3H]nicotine, read-out: Human α4β2 Ki
[2] = rat cortex membranes, 5 nM [3H]nicotine, read-out: Rat α4β2 Ki
[3] = rat hippocampus membranes, 5 nM [3H]MLA, read-out: Rat α7 Ki

T1 sequence (P43681 29-627 limits assumed): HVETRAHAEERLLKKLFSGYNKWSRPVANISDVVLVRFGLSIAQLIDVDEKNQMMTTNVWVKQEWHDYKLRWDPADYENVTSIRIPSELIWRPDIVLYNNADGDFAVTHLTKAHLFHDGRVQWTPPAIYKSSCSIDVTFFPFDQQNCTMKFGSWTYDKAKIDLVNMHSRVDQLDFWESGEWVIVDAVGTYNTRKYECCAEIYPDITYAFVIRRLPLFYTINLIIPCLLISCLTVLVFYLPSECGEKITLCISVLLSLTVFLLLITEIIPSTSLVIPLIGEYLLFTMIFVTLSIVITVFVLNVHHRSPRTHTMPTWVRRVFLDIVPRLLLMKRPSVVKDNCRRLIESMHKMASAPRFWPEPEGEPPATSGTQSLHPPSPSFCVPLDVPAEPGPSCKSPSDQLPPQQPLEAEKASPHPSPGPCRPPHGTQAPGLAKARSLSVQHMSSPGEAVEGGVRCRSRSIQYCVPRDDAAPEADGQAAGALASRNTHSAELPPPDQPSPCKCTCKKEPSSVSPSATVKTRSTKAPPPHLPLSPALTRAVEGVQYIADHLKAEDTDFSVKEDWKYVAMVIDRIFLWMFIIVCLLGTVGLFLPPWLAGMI
T1 sequence (P17787 26-502): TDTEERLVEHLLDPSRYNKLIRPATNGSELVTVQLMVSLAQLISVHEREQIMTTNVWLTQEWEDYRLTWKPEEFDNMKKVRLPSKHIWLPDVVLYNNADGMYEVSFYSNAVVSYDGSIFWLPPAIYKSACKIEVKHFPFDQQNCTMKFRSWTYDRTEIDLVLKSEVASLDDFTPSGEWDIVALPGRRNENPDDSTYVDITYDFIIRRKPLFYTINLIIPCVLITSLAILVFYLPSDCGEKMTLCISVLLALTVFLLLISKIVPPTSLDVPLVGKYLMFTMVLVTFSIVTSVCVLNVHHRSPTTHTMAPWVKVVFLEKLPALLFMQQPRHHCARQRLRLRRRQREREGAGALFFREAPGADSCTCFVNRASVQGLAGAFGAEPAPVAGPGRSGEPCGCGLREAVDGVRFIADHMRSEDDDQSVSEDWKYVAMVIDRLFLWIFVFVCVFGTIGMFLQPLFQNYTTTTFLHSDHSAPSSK

Structure (SMILES) | Ki (human α4β2 nAChR subtype; read-out: Human α4β2 Ki) [nM] | Ki (rat α4β2 nAChR subtype; read-out: Rat α4β2 Ki) [nM] | also measured
O=C(N1CC2CNC(C2)C1)C(F)(F)F (stereo not drawn) | 2100 | 2400 | Ki (rat α7 nAChR subtype): > 10000 nM
COC(=O)N1CC2CNC(C2)C1 (stereo not drawn) | 12 | 6.8 | 
O=C(C1CC=CC1)N1C[C@@H]2CN[C@@H](C2)C1 |  |  | Ki (human α4β2 nAChR subtype; [1]): 420 nM; Ki (rat α4β2 nAChR subtype; [2]): 330 nM; Ki (rat α7 nAChR subtype): 29 nM
O=C(C1CCOC1)N1C[C@@H]2CN[C@@H](C2)C1 (stereo partly drawn) | 46 |  | Ki (rat α4β2 nAChR subtype; [2]): 140 nM
CC(=O)N1C[C@@H]2CN[C@@H](C2)C1 |  |  | Ki (human α4β2 nAChR subtype; [1]): 730 nM; Ki (rat α4β2 nAChR subtype; [2]): 580 nM
CC(C)(C)C(=O)N1C[C@H]2CN[C@H](C2)C1 | 26 | 68 | 
CC(=O)N1C[C@H]2CN[C@H](C2)C1 | 34 | 14 | 
COC(=O)N1C[C@@H]2CN[C@@H](C2)C1 |  | 100 | Ki (human α4β2 nAChR subtype; [1]): 120 nM
CC(C)OC(=O)N1C[C@@H]2CN[C@@H](C2)C1 |  |  | Ki (human α4β2 nAChR subtype; [1]): 560 nM; Ki (rat α4β2 nAChR subtype; [2]): 970 nM
COCCOC(=O)N1C[C@@H]2CN[C@@H](C2)C1 |  |  | Ki (human α4β2 nAChR subtype; [1]): 580 nM; Ki (rat α4β2 nAChR subtype; [2]): 1000 nM
COCCOC(=O)N1C[C@H]2CN[C@H](C2)C1 |  | 74 | Ki (human α4β2 nAChR subtype; [1]): 310 nM
O=C(Oc1ccc(F)cc1)N1C[C@H]2CN[C@H](C2)C1 |  |  | Ki (human α4β2 nAChR subtype): 310 nM; Ki (rat α4β2 nAChR subtype): 45 nM
C/C=C/CC(=O)N1C[C@@H]2CN[C@@H](C2)C1 | 220 | 180 | 
CCOC(=O)N1C[C@@H]2CN[C@@H](C2)C1 | 49 | 25 | 
CS(=O)(=O)N1C[C@@H]2CN[C@@H](C2)C1 | 2300 |  | 
CC(C)S(=O)(=O)N1C[C@@H]2CN[C@@H](C2)C1 | 16 |  | Ki (rat α4β2 nAChR subtype; [2]): 750 nM
COc1ccc(S(=O)(=O)N2C[C@@H]3CN[C@@H](C3)C2)cc1 | 580 | 750 | 
CC1(C)CC1C(=O)N1C[C@@H]2CN[C@@H](C2)C1 (stereo partly drawn) | 31 | 49 | 
O=C(C1CC12CCC2)N1C[C@@H]2CN[C@@H](C2)C1 (stereo partly drawn) | 2.3 | 3 | 
CCCCC(=O)N1C[C@@H]2CN[C@@H](C2)C1 | 77 | 36 | 
CC(C)OC(=O)N1C[C@H]2CN[C@H](C2)C1 | 44 | 24 | 
COC(=O)N1C[C@H]2CN[C@H](C2)C1 | 7.9 | 4.8 | 
CCNC(=O)N1C[C@@H]2CN[C@@H](C2)C1 | 560 | 160 | 
C=CCNC(=O)N1C[C@@H]2CN[C@@H](C2)C1 | 910 | 130 | 
O=C(Nc1ccc(F)cc1)N1C[C@@H]2CN[C@@H](C2)C1 | > 10000 | 2200 | 
C=CCNC(=S)N1C[C@@H]2CN[C@@H](C2)C1 | > 10000 | 9900 | 
CC(C)CC(=O)N1C[C@@H]2CN[C@@H](C2)C1 | 350 | 320 | 

Structure (SMILES) | Ki (human α4β2 nAChR subtype; read-out: Human α4β2 Ki) [nM] | Ki (rat α4β2 nAChR subtype; read-out: Rat α4β2 Ki) [nM] | also measured
CCCOC(=O)N1C[C@@H]2CN[C@@H](C2)C1 | 94 | 43 | 
CN1C[C@H]2C[C@@H]1CN(C(=O)C1CC1)C2 | 18 | 19 | 
CC1(C)C(C(=O)N2CC3CNC(C3)C2)C1(C)C (stereo not drawn) | 8600 |  | 
O=C(C1C[C@@H]1F)N1CC2CNC(C2)C1 (stereo partly drawn) | 14 | 22 | Ki (rat α7 nAChR subtype): 260 nM
O=C(C1C[C@H]1F)N1CC2CNC(C2)C1 (stereo partly drawn) | 11 | 21 | Ki (rat α7 nAChR subtype): 630 nM
O=C(CC(F)(F)F)N1C[C@@H]2CN[C@@H](C2)C1 | 73 |  | Ki (rat α4β2 nAChR subtype; [2]): 110 nM
CCS(=O)(=O)N1C[C@@H]2CN[C@@H](C2)C1 | 1200 |  | 
CCCS(=O)(=O)N1C[C@@H]2CN[C@@H](C2)C1 | 2800 |  | 
CCCCS(=O)(=O)N1C[C@@H]2CN[C@@H](C2)C1 | 2100 |  | 
O=C(C1CC1)N1CC2CNCC1C2 (stereo not drawn) | 3.4 | 5.6 | 
O=C(C1CC=CC1)N1CC2CNCC1C2 (stereo not drawn) | 21 |  | Ki (rat α4β2 nAChR subtype; [2]): 120 nM; Ki (rat α7 nAChR subtype; [3]): 160 nM
O=C(C1CC1)N1C[C@@H]2CNC[C@H]1C2 | 4 | 7 | 
O=C([C@H]1C[C@H]1F)N1C[C@@H]2CNC[C@H]1C2 | 3.7 | 2.9 | 
O=C([C@H]1C[C@@H]1F)N1C[C@@H]2CNC[C@H]1C2 | 11 |  | 
O=C(C1CCC1)N1C[C@@H]2CNC[C@H]1C2 | 23 |  | 
CCCC(=O)N1C[C@@H]2CNC[C@H]1C2 | 34 |  | 
CC(C)C(=O)N1C[C@@H]2CNC[C@H]1C2 | 590 |  | 
CCC(=O)N1C[C@@H]2CNC[C@H]1C2 | 27 |  | 
COC(=O)N1C[C@@H]2CNC[C@H]1C2 | 86 | 40 | 
CC(=O)N1C[C@@H]2CNC[C@H]1C2 | 1300 |  | 
O=C(C1CC1)C1N[C@H]2CNC[C@@H]1C2 (stereo partly drawn) | 480 |  | Ki (rat α7 nAChR subtype): 1300 nM
O=C([C@@H]1C[C@H]1F)N1C[C@H]2CNC[C@@H]1C2 | 230 |  | 
O=C(C1CCC1)N1C[C@H]2CNC[C@@H]1C2 | 180 |  | Ki (rat α7 nAChR subtype): 1500 nM
CC(C)C(=O)N1C[C@H]2CNC[C@@H]1C2 | 770 |  | Ki (rat α7 nAChR subtype; [3]): 890 nM
O=C(CCF)N1C[C@H]2CNC[C@@H]1C2 | 2400 |  | Ki (rat α7 nAChR subtype; [3]): 2300 nM
COC(=O)N1C[C@H]2CNC[C@@H]1C2 |  |  | Ki (human α4β2 nAChR subtype; [1]): 5700 nM
CCOC(=O)N1C[C@H]2CNC[C@@H]1C2 | 1400 |  | 

— patent US20110263629A1, “AMIDES OF DIAZABICYCLOOCTANES AND USES THEREOF” (Targacept, Inc., priority 2008, published 2011)
